Consider one compound from article PMC5263243, “PPE Surface Proteins Are Required for Heme Utilization by Mycobacterium tuberculosis” (mBio, 2017).

One test has as its target T1, PPE62 (Mycobacterium tuberculosis, UniProt P9WHX7).
T1 construct: PPE62His6 (Rv3533c)
T1 sequence (P9WHX7 1-582): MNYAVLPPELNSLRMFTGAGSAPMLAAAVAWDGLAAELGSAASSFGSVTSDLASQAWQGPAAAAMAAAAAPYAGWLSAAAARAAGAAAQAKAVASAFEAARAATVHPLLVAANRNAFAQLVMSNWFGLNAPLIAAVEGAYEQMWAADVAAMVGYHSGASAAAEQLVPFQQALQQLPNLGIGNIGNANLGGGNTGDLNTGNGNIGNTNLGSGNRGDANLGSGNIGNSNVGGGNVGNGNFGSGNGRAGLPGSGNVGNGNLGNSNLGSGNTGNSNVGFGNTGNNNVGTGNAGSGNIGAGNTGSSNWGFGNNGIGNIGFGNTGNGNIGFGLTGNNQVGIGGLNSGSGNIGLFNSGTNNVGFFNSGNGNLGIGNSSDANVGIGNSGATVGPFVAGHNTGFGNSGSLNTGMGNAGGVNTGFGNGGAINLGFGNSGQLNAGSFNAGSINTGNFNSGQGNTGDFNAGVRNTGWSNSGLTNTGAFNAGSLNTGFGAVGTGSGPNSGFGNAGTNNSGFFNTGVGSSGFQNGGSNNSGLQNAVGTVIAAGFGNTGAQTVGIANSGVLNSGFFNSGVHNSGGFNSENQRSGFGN
The test can be described thus: SPR (Biacore T200, NTA chip, […] binding model). Particulars: read-out: Heme dissociation constant. (In general: Surface plasmon resonance follows binding to a sensor surface in real time, without labels.)

Another test deals with PPE36 (Mycobacterium tuberculosis, UniProt P9WI01). As to the kind of experiment: biochemical.
Chain of PPE36 (P9WI01 whole entry): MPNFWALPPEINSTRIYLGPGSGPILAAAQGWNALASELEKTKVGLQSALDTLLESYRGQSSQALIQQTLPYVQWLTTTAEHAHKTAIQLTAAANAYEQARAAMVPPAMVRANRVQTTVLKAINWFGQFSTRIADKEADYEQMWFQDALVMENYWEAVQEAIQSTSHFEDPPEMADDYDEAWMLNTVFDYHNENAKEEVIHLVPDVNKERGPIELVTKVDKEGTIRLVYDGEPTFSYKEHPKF
Chain of PPE36 (L7N6B5 1-98 partner): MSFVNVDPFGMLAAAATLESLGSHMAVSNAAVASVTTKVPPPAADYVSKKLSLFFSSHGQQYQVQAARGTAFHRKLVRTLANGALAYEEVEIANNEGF

`C=CC1=C(C)C2=Cc3c(C=C)c(C)c4[n]3[Fe]([Cl])[n]3c(c(C)c(CCC(=O)O)c3=CC3=NC(=C4)C(C)=C3CCC(=O)O)=CC1=N2` [hemin]: the results for the Kd at PPE62 and at PPE36 were 400 µM and 4000 µM, respectively.
